Source: the NIST ThermoML archive (doi:10.1016/j.jct.2004.11.012)
Numbers after ± are expanded uncertainties.

Conditions: 101.33 kPa, Liquid

Row | SMILES | mass density (298.15 K) [kg/m3] | mass density (308.15 K) [kg/m3]
1 | C=COC(C)=O [vinyl acetate] | 925.775 ± 0.16 | 913.134 ± 0.16
2 | C=C(C)C(=O)O [2-methyl-2-propenoic acid] | 1009.13 ± 0.13 | 998.64 ± 0.13
3 | C=C(C)C(=O)OCCCC [butyl 2-methyl-2-propenoate] | 890.438 ± 0.28 | 880.857 ± 0.28
4 | C=CCOC(=O)C(=C)C [2-propenyl 2-methylpropenoate] | 927.997 ± 0.17 | 917.423 ± 0.18
5 | COC(C)(C)C [2-methoxy-2-methylpropane] | 735.356 ± 0.27 | 724.85 ± 0.28
